“And” between values parts separate entries of the source, which are not always exact repeats. Equal entries are not always repeated.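 Cultured in 96-well plates, cells were exposed to test compound for 48 hours across five concentrations. Here, GI50 denotes the concentration required for 50% inhibition of growth. TGI is the concentration that stops growth completely.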 Numbered stars: 1 amine (or outer) side, 2 acyl side, 3 side chain; on linkers, the order of the positions; unused ones are H or OH. Bridge positions count the residues as written; N and C are the ends. Square brackets hold non-standard residues; d marks the D form. Peptide text beside a SMILES is read from it. I, II: the chains in the order shown. Actinocin(1to9) = Cc1c2oc3c(C)ccc(C(=O)[*:2])c3nc-2c(C(=O)[*:1])c(N)c1=O; NMeY = CN[CH](Cc1ccc(O)cc1)C(=O)O; Sar = CNCC(=O)O
Key:
Experiment in all cases: inhibition of tumour cell growth, NCI panel, 48 h
RPMI-8226 leukemia = test system: RPMI-8226 leukemia
SF-268 CNS = test system: SF-268 CNS
SF-295 CNS = test system: SF-295 CNS
HL-60(TB) leukemia = test system: HL-60(TB) leukemia
HOP-92 NSCLC = test system: HOP-92 NSCLC
SNB-75 CNS = test system: SNB-75 CNS
NCI-H23 lung = test system: NCI-H23 lung
HOP-62 NSCLC = test system: HOP-62 NSCLC
SR leukemia = test system: SR leukemia
SK-MEL-5 melanoma = test system: SK-MEL-5 melanoma

SMILES | GI50 (RPMI-8226 leukemia) [µM] | TGI (RPMI-8226 leukemia) | GI50 (SF-268 CNS) | TGI (SF-268 CNS) | GI50 (SF-295 CNS) [µM] | TGI (SF-295 CNS) | GI50 (HL-60(TB) leukemia) [µM] | TGI (HL-60(TB) leukemia) | GI50 (HOP-92 NSCLC) | TGI (HOP-92 NSCLC) | GI50 (SNB-75 CNS) [µM] | TGI (SNB-75 CNS) | GI50 (NCI-H23 lung) [µM] | TGI (NCI-H23 lung) | GI50 (HOP-62 NSCLC) [µM] | TGI (HOP-62 NSCLC) | GI50 (SR leukemia) [µM] | TGI (SR leukemia) | GI50 (SK-MEL-5 melanoma) [µM] | TGI (SK-MEL-5 melanoma)
CC(C)(C)OC(=O)N[C@@H](Cc1ccccc1)C(=O)N(Cc1ccccc1)C1(C(=O)NCc2ccccc2)CCN(Cc2ccccc2)CC1 | 2.18 | 6.98 µM | 4.88 µM | > 100 µM | 2.9 | > 100 µM | 2.5 | 6.1 µM | 1.45 µM | 5.33 µM | 2.97 | > 100 µM | 5.67 | > 100 µM | 3.89 | > 100 µM | 2.33 | 7.51 µM | 1.73 | 3.29 µM
O=C(O)c1ccc(SSc2ccc(C(=O)O)cn2)nc1 | – | > 100 µM | – | > 100 µM | – | > 100 µM | – | > 100 µM | – | > 100 µM | – | > 100 µM | – | > 100 µM | – | > 100 µM | – | > 100 µM | – | > 100 µM
COC(=O)CC[C@]12C[C@]13CC[C@]1(C)C4C(C)C[C@]5(CC(C)C(=O)O5)OC4CC1(C)C3CCC2C(C)(C)O (stereo partly drawn) | – | 98.7 µM | – | > 100 µM | – | > 100 µM | – | 66.1 µM | – | 65.1 µM | – | > 100 µM | – | > 100 µM | – | > 100 µM | – | > 100 µM | – | > 100 µM
COc1cc2cnc3c4cc(OCc5ccccc5)ccc4ccc3c2cc1OC | – | 20.2 µM | – | > 100 µM | – | 82.9 µM | – | 9.27 µM | – | > 100 µM | – | 18.7 µM | – | 75.7 µM | – | 76.5 µM | – | 27.1 µM | – | 76 µM
C[C@@H]1CC[C@@]2(NC1)O[C@H]1C[C@H]3[C@@H]4CC[C@H]5C[C@@H](O)CC[C@]5(C)[C@H]4CC[C@]3(C)[C@H]1[C@@H]2C | – | 85.6 µM | – | > 100 µM | – | > 100 µM | – | 53.8 µM | – | > 100 µM | – | > 100 µM | – | > 100 µM | – | > 100 µM | – | > 100 µM | – | > 100 µM
COc1ccc2[nH]c(C(=O)OCc3ccc4c(Cl)cc(Cl)c(O)c4n3)cc2c1 | 0.803 | 3.86 µM | 1.42 µM | 2.77 µM | 5.12 | 18 µM | 1.5 | 3.84 µM | 0.456 µM | 1.99 µM | 0.251 | 1.78 µM | 1.57 | 3.37 µM | 1.33 | 2.8 µM | 0.38 | 3.7 µM | 1.65 | 3.02 µM
C=C1C(OC(C)=O)CC(OC(C)=O)C2(C)C(OC(C)=O)C(OC(C)=O)C3=C(C)C(OC(=O)/C=C/c4ccccc4)CC(C(OC(C)=O)C12)C3(C)C (stereo not drawn) | – | > 100 µM | – | > 100 µM | – | > 100 µM | – | > 100 µM | – | 65.7 µM | – | 43.4 µM | – | – | – | > 100 µM | – | > 100 µM | – | > 100 µM
CCC1=C(CC2NCCc3ccccc32)CC2c3cc(OC)c(OC)cc3CCN2C1 (stereo not drawn) | 4.17 | 15.9 µM and 3.12 µM | 3.13 µM | 14 µM and 6.12 µM | 3.73 | 15 µM and 6.82 µM | 2.89 | 10.7 µM and 5.01 µM | 1.23 µM | 9.48 µM and 16.6 µM | 4.09 | 13.8 µM and 2.47 µM | 5.2 | 35.9 µM and 13.1 µM | 3.6 | 17.1 µM and 4.65 µM | 2.86 | 8.77 µM and 3.89 µM | 3.39 | 13.1 µM and 2.7 µM
CCOC(=O)CN1C(=O)c2cc([N+](=O)[O-])cc3cc([N+](=O)[O-])cc(c23)C1=O | – | > 100 µM | – | > 94.6 µM | – | > 100 µM | – | 8.99 µM | – | > 100 µM | – | > 100 µM | – | > 100 µM | – | > 100 µM | – | 30.7 µM | – | > 100 µM
CC(C)(C)OC(=O)Nc1ccc2c(c1)C(NC(=O)Nc1cccc(C#N)c1)CC(C)(C)O2 (stereo not drawn) | 2.63 | > 81.9 µM | 5.1 µM | > 100 µM | 1.94 | > 37.1 µM | 2.39 | 22.3 µM | 4.06 µM | > 28.3 µM | 7.01 | > 100 µM | 1.09 | > 81.3 µM | 5 | > 100 µM | 2.18 | 30 µM | 0.463 | 3.15 µM
N#Cc1cccc(N2C(=O)C3C4C=CC(C3C2=O)C2C(=O)N(c3cccc(C#N)c3)C(=O)C42)c1 (stereo not drawn) | – | > 56.2 µM | – | 49.7 µM | – | 36.7 µM | – | > 100 µM | – | 31.6 µM | – | 17.6 µM | – | 52.5 µM | – | 38.1 µM | – | 49.5 µM | – | > 63.1 µM
COC(=O)N[C@H]1CCc2c(Cl)c(OC)c(OC)c(OC)c2-c2ccc(SC)c(=O)cc21 | < 0.01 | > 42.8 µM | < 0.01 µM | > 100 µM | – | – | < 0.01 | < 0.0127 µM | 0.0199 µM | 18.6 µM | < 0.01 | > 81.2 µM | < 0.01 | 37 µM | < 0.01 | > 100 µM | < 0.01 | > 66.6 µM | < 0.01 | < 0.0127 µM
O=c1c2cc3ccccc3n2c(=O)c2cc3ccccc3n12 | – | > 100 µM | – | > 100 µM | – | > 100 µM | – | > 100 µM | – | > 100 µM | – | > 100 µM | – | > 100 µM | – | – | – | > 100 µM | – | > 100 µM
O=C(Nc1cccc(C(F)(F)F)c1)Oc1ccc(Cl)c2cccnc12 | 0.561 | 4.22 µM | 1.36 µM | 16.6 µM | 0.976 | 6.93 µM | 0.776 | – | 0.462 µM | 4.02 µM | 2.59 | 17.8 µM | 1.48 | 11.7 µM | 2.99 | 11 µM | 0.447 | – | 1.31 | 2.88 µM
COc1ccc(CC2C(=O)OC(C)C(NC(=O)c3c4nc5c(C(=O)NC6C(=O)NC(C(C)C)C(=O)N7CCCC7C(=O)N(C)CC(=O)N(C)C(Cc7ccc(OC)cc7)C(=O)OC6C)ccc(C)c5oc-4c(C)c(=O)c3N)C(=O)NC(C(C)C)C(=O)N3CCCC3C(=O)N(C)CC(=O)N2C)cc1 (stereo not drawn) (I: TVP[Sar][NMeY](Me) / II: TVP[Sar][NMeY](Me); ester I:1-I:C, II:1-II:C; linker I:N-II:N via Actinocin(1to9); configuration not given here) | – | < 0.01 µM | < 0.01 µM and 0.00484 µM | – | – | 0.28 µM | 0.00154 | 0.0515 µM | < 0.01 µM and 0.035 µM | – | – | 0.158 µM | – | – | – | – | 0.000646 | > 0.374 µM | – | –

— PubChem BioAssay (NCI)
